Source: patent publication US7498127B2, “Method of screening cell growth inhibitor and cell growth inhibitor” (priority 2002, dated 2009)

System: nuclear export of the PLZF protein
Assay: Inhibitory effect against the nuclear export of the PLZF protein by processing (CFP-PLZF in nucleus, TPA treatment)
Assay type: cell-based, Human
Conditions: HT1080/HB-EGF transfected with CFP-PLZF; 100 nM TPA 60 min in copresence of LMB 10 ng/ml; FIG. 7
Procedure: Each transfectant containing CFP-PLZF was cultured for 24 hours, and then 100 nM TPA was added thereto for treatment for 60 min. The number (N) of the cells expressing CFP-PLZF in the nucleus and the number (C) of the cells in which CFP-PLZF has leaked into the cytoplasm are counted under observation with a fluorescent microscope before and after the TPA treatment, and the ratio of the number (N) of the cells expressing CFP-PLZF in the nucleus to the total number (N+C) of the cells expressing CFP-PLZF is calculated and thus obtained (N/(N+C)×100 (%)). The wild-type HT1080 cells (the above described 1)) were used as the control for comparison.
HT1080/HB-EGF to which CFP-PLZF had been transfected (see Test Example 3) was cultured for 24 hours, and then treated with 100 nM TPA in the copresence of LMB (10 ng/ml) for 60 min. The number of the cells expressing CFP-PLZF in the nucleus was measured with a microscope before and after the TPA treatment and the ratio was calculated.
As the control, the ratio of the number of the cells expressing CFP-PLZF before and after the TPA treatment when the TPA treatment was performed without adding LMB was obtained, and compared with the ratio when LMB was added. Thus, the compound LMB to be tested was evaluated. • 3. Test Results

With `CCC(=C/[C@H](C)C/C=C/C(C)=C/[C@@H](C)C(=O)[C@@H](C)[C@H](O)[C@@H](C)C/C(C)=C/C(=O)O)/C=C/[C@@H]1OC(=O)C=C[C@@H]1C` [LMB, reptomycin B] the “inhibition of the nuclear export of the PLZF protein (ratio of cells expressing CFP-PLZF in the nucleus before and after TPA treatment)” value was “inhibited the nuclear export of the PLZF protein”.
